In brackets after ≈: the same amount, converted by molar mass. Several values for one entry are separate records, joined by “and”; a condition that tells them apart may be missing. Identical values can stand only once. Like-named read-outs stand apart in the source and are kept apart here.
What was measured:
[1] = biological target: N,N′-diacetyl-Lys-D-Ala-D-Ala; assay: ITC, 10 °C, [HSA] 0 µM
[2] = biological target: N,N′-diacetyl-Lys-D-Ala-D-Ala; assay: ITC, 25 °C, [HSA] 0 µM
[3] = biological target: N,N′-diacetyl-Lys-D-Ala-D-Ala; assay: ITC, 25 °C, 513 µM HSA present
S. aureus = assay: MIC of study organisms (NCCLS microdilution); type: cell-based; conditions: Staphylococcus aureus
Procedure: (§1) MICs were determined in MHB by standard NCCLS microdilution techniques. […] All MICs were performed at least in duplicate.

S. pneumoniae = assay: MIC of study organisms (NCCLS microdilution); type: cell-based; conditions: S. pneumoniae strain 10813
Procedure: as §1

[4] = set-up: species or system Sprague-Dawley rats; conditions: rat, in vivo, iv, 20 mg/kg
Procedure: Mass balance studies were conducted to determine the excretion pattern of dalbavancin following a single intravenous (IV) infusion of dalbavancin in male rats. […] Water and methanol cage washes were also collected.

gram positive bacteria = assay: MIC by broth microdilution (NCCLS), with or without 30% bovine serum (Example 19); type: cell-based
Procedure: (§2) The compounds were prepared according to the examples above and the methods described in U.S. Patent Application Publication No. 2004/0142883. Individual dalbavancin compounds were purified by HPLC. […] Before dissolution, each sample was analyzed by HPLC and quantified. […] Louis, Mo.), Gentamycin (GE) (Sigma Chemical Co., St. Louis, Mo.), Penicillin G (Pen.G) (Sigma Chemical Co., St. Louis, Mo.), and Amphotericin B (Amph.B) (Sigma Chemical Co., St. Louis, Mo.). The microorganisms used were reference strains obtained from the American Type Culture Collection (ATCC) (Rockville, Md.), SmithKline and French Laboratories (SKF), and the Upjohn Company (UC) (Kalamazoo, Mich.).

gram-negative bacteria [5] = assay: as above; type: cell-based
Procedure: as §2

[6] = test system: Candida albicans SKF 2270; assay: as above; type: cell-based; conditions: SKF2270
Procedure: MICs were determined by the broth microdilution methodology following the standard NCCLS procedure (NCCLS Document M7-A6, Vol. 23, No. 2, “Methods for dilution antimicrobial susceptibility tests for bacteria that grow aerobically.” Approved Guideline. January 2003, which can be herein incorporated by reference in its entirety), with or without 30% adult bovine serum (BS) (PAA Laboratories GmBH, Haidmannweg Pasching Austria), using bacterial innocula at approximately 5×10^5 CFU/ml. The media employed included cation-adjusted Müller Hinton broth (Difco Laboratories, Detroit, Mich.) that was used that was adjusted with CaCl2 and MgCl2 to a final concentration of 20 mg/L and 10 mg/L, respectively. Tests were read following 20-24 hours of incubation at 35° C.

gram-positive bacteria = assay: MIC by broth microdilution (NCCLS), IsoB0 and reference compounds; type: cell-based
Procedure: Müller Hinton broth (Difco Laboratories, Detroit, Mich., USA) adjusted with CaCl2 and MgCl2 to a final concentrations of 20 mg/L and 10 mg/L respectively.
Adult bovine serum (BS) (batch A05123-159 PAA Laboratories GmBH Haidmannweg Pasching Austria).
The microorganisms used are reference standard strains from the American Type Culture Collection (ATCC, Rockville, USA), Smith Kline and French Laboratories (SKF) and the Upjohn Company (UC, Kalamazoo, Mich., USA).
(§3) MICs were determined by the broth microdilution methodology following the standard NCCLS procedure, with or without 30% bovine serum, using bacterial inocula of approximately 5×10^5 CFU/mL. Tests were read after 20-24 h incubation at 35° C.

[7] = In vivo biological activity of IsoB0
gram-negative bacteria [8] = assay: MIC by broth microdilution (NCCLS), IsoB0 and reference compounds; type: cell-based
Procedure: as §3

Candida albicans SKF2270 = assay: as above; type: cell-based
[9] = biological target: N,N′-diacetyl-Lys-D-Ala-D-Ala; assay: ITC, 37 °C, [HSA] 0 µM
human serum proteins = assay: cell-based or functional assay
[10] = biological target: N,N′-diacetyl-Lys-D-Ala-D-Ala; assay: ITC, 25 °C, free dalbavancin
[11] = biological target: N,N′-diacetyl-Lys-D-Ala-D-Ala; assay: ITC, 25 °C, apparent, 104 µM HSA present
[12] = biological target: N,N′-diacetyl-Lys-D-Ala-D-Ala; assay: ITC, 25 °C, apparent, 288 µM HSA present
[13] = biological target: N,N′-diacetyl-Lys-D-Ala-D-Ala; assay: ITC, 25 °C, apparent, 430 µM HSA present
[14] = biological target: N,N′-diacetyl-Lys-D-Ala-D-Ala; assay: ITC, 25 °C, apparent, 601 µM HSA present
[15] = biological target: N,N′-diacetyl-Lys-D-Ala-D-Ala; assay: ITC, 37 °C, apparent, 482 µM HSA present
[16] = E. faecalis ATCC29212 ref. strain
[17] = Enterococcus faecalis, ATCC7080
[18] = S. aureus ATCC29213 ref. strain
[19] = Staphylococcus aureus Smith ATCC19636
[20] = Pseudomonas aeruginosas ATCC 10145

Vancomycin hydrochloride (peptide)
Ka [1]: 690000 M⁻¹
N [1]: 1.1
Ka [2]: 340000 M⁻¹ and 360000 M⁻¹
N [2]: 0.91 and 0.97
Ka [3]: 290000 M⁻¹
N [3]: 1.05

COc1cccc(OC)c1C(=O)N[C@@H]1C(=O)N2[C@@H]1SC(C)(C)[C@@H]2C(=O)O [Methicillin]
MIC (S. aureus; MRSA, S. aureus strain MRSA): > 8 µg/mL
MIC (S. aureus; S. aureus strain 25923): 0.12 µg/mL
MIC (S. aureus; S. aureus strain 31005): 0.12 µg/mL
MIC (S. aureus; S. aureus strain 33591): > 8 µg/mL
MIC (S. aureus; S. aureus strain 307109): > 8 µg/mL
MIC (S. aureus; S. aureus strain Smith): 0.12 µg/mL

Penicillin
MIC (S. pneumoniae): 8 ng/mL

CN[C@H]1C(=O)N[C@@H]2Cc3ccc(cc3)Oc3cc4cc(c3O[C@@H]3O[C@H](C(=O)O)[C@@H](O)[C@H](O)[C@H]3NC(=O)CCCCCCCCC(C)C)Oc3ccc(cc3Cl)[C@@H](O)[C@@H]3NC(=O)[C@H](NC(=O)[C@@H]4NC(=O)[C@@H](NC2=O)c2cc(cc(O)c2Cl)Oc2cc1ccc2O)c1ccc(O)c(c1)-c1c(O[C@H]2O[C@H](CO)[C@@H](O)[C@H](O)[C@@H]2O)cc(O)cc1[C@@H](C(=O)NCCCN(C)C)NC3=O [^3H-dalbavancin]
fraction of excreted radioactivity eliminated in feces [4]: ⅓
fraction of excreted radioactivity eliminated in urine [4]: ⅔

CNC1C(=O)NC2Cc3ccc(c(Cl)c3)Oc3cc4cc(c3OC3OC(C(=O)O)C(O)C(O)C3NC(=O)CCCCCCCCC(C)C)Oc3ccc(cc3Cl)C(O)C3NC(=O)C(NC(=O)C4NC(=O)C(NC2=O)c2cc(O)cc(c2)Oc2cc1ccc2O)c1ccc(O)c(c1)-c1c(OC2OC(CO)C(O)C(O)C2O)cc(O)cc1C(C(=O)NCCCN(C)C)NC3=O [Composition B0, ristomycin A aglycone, 5,31-dichloro-38-de(methoxycarbonyl)-7-demethyl-19-deoxy-56-O-(2-deoxy-2-((10-methyl-1-oxoundecyl)amino)-beta-D-glucopyranuronosyl)-38-(((3-(dimethylamino)propyl)amino)-carbonyl)-42-O-alpha-D-mannopyranosyl-N^15-methyl-]
MIC (gram positive bacteria; Bacillus subtilis ATCC6633): ≦0.06 mg/L
MIC (gram positive bacteria; [16]): 0.125 µg/mL (≈ 0.0688 µM)
MIC (gram positive bacteria; [17]): 0.125 µg/mL (≈ 0.0688 µM)
MIC (gram positive bacteria; [18]): 0.125 µg/mL (≈ 0.0688 µM)
MIC (gram positive bacteria; S. aureus Smith + 30% BS): 2 µg/mL
MIC (gram positive bacteria; S. epidermidis ATCC12228): ≦0.06 mg/L
MIC (gram positive bacteria; S. pneumoniae Felton UC41): ≦0.06 mg/L
MIC (gram positive bacteria; [19]): 0.25 µg/mL (≈ 0.138 µM)
MIC (gram positive bacteria; Streptococcus pyrogenes SKF 13400): ≦0.06 mg/L
MIC (gram-negative bacteria [5]; E. coli ATCC25922 ref. strain): >64 mg/L
MIC (gram-negative bacteria [5]; Escherichia coli SKF 12140): >64 mg/L
MIC (gram-negative bacteria [5]; Proteus vulgaris, ATCC881): >64 mg/L
MIC (gram-negative bacteria [5]; [20]): >64 mg/L
MIC ([6]; Candida albicans): >64 mg/L

CNC1C(=O)NC2Cc3ccc(cc3)Oc3cc4cc(c3OC3OC(C(=O)O)C(O)C(O)C3NC(=O)CCCCCCCCC(C)C)Oc3ccc(cc3Cl)C(O)C3NC(=O)C(NC(=O)C4NC(=O)C(NC2=O)c2cc(cc(O)c2Cl)Oc2cc1ccc2O)c1ccc(O)c(c1)-c1c(OC2OC(CO)C(O)C(O)C2O)cc(O)cc1C(C(=O)NCCCN(C)C)NC3=O (stereo not shown) [IsoB0]
MIC (gram-positive bacteria; Bacillus subtilis ATCC6633): ≦0.06 mg/L
MIC (gram-positive bacteria; [16]): 0.25 mg/L (≈ 0.138 µM)
MIC (gram-positive bacteria; [17]): 0.25 mg/L (≈ 0.138 µM)
MIC (gram-positive bacteria; [18]): 0.25 mg/L (≈ 0.138 µM)
MIC (gram-positive bacteria; S. aureus Smith + 30% BS): 16 mg/L
MIC (gram-positive bacteria; S. epidermidis ATCC12228): 0.125 mg/L (≈ 0.0688 µM)
MIC (gram-positive bacteria; S. pneumoniae Felton UC41): 0.125 mg/L (≈ 0.0688 µM)
MIC (gram-positive bacteria; [19]): 0.5 mg/L (≈ 0.275 µM)
MIC (gram-positive bacteria; Streptococcus pyogenes SKF13400): 0.06 mg/L (≈ 0.033 µM)
activity against a panel of gram-positive bacteria (gram-positive bacteria; compared with dalbavancin): very similar to dalbavancin
in vivo biological activity [7]: comparable to that of dalbavancin B0
MIC (gram-negative bacteria [8]; E. coli ATCC25922 ref. strain): 64 mg/L (≈ 35.2 µM)
MIC (gram-negative bacteria [8]; Escherichia coli SKF 12140): 64 mg/L (≈ 35.2 µM)
MIC (gram-negative bacteria [8]; Proteus vulgaris, ATCC881): >64 mg/L
MIC (gram-negative bacteria [8]; [20]): >64 mg/L
MIC (Candida albicans SKF2270): >64 mg/L

Dalbavancin (peptide)
N [9]: 0.82
degree of binding estimated from MIC difference (human serum proteins): 96%
Kd [10]: 3000 nM
N [11]: 1.38
N [12]: 0.9
N [13]: 1.24
N [14]: 0.86
N [15]: 0.179

CC(C)CCCCCCCCC(=O)N[C@H]1[C@H](Oc2c3cc4cc2Oc2ccc(cc2Cl)[C@@H](O)[C@@H]2NC(=O)[C@H](NC(=O)[C@@H]4NC(=O)[C@H]4NC(=O)[C@@H](Cc5ccc(cc5)O3)NC(=O)[C@H](N(C)C)c3ccc(O)c(c3)Oc3cc(O)c(Cl)c4c3)c3ccc(O)c(c3)-c3c(O[C@H]4O[C@H](CO)[C@@H](O)[C@H](O)[C@@H]4O)cc(O)cc3[C@@H](C(=O)NCCCN(C)C)NC2=O)O[C@H](C(=O)O)[C@@H](O)[C@@H]1O [Composition B2, N^15,N^15-dimethyl dalbavancin B0]
MIC (gram positive bacteria; ATCC6633, Bacillus subtilis ATCC 6633, read-out: MIC): ≤ 0.03 µg/mL
MIC (gram positive bacteria; ATCC7080, Enterococcus faecalis ATCC 7080, read-out: MIC): 0.06 µg/mL (≈ 0.0328 µM)
MIC (gram positive bacteria; ATCC19636, Staphylococcus aureus Smith ATCC 19636, read-out: MIC): 0.125 µg/mL (≈ 0.0683 µM)
MIC (gram positive bacteria; Enterococcus faecalis, E. faecalis ATCC29212 ref. strain, read-out: MIC): 0.125 µg/mL (≈ 0.0683 µM)
MIC (gram positive bacteria; Staphylococcus aureus, ATCC29213, S. aureus ATCC 29213 ref. strain, read-out: MIC): 0.125 µg/mL (≈ 0.0683 µM)
MIC (gram positive bacteria; Staphylococcus aureus, S. aureus Smith + 30% BS, read-out: MIC): 2 µg/mL
MIC (gram positive bacteria; Staphylococcus epidermidis, ATCC12228, S. epidermidis ATCC 12228, read-out: MIC): ≤ 0.03 µg/mL
MIC (gram positive bacteria; Streptococcus pneumoniae, S. pneumoniae Felton UC41, read-out: MIC): ≤ 0.03 µg/mL
MIC (gram positive bacteria; Streptococcus pyrogenes SKF 13400, read-out: MIC): ≤ 0.03 µg/mL
MIC (gram-negative bacteria [5]; ATCC881, Proteus vulgaris ATCC 881, read-out: MIC): 32 mg/L (≈ 17.5 µM)
MIC (gram-negative bacteria [5]; Escherichia coli SKF 12140, read-out: MIC): 32 mg/L (≈ 17.5 µM)
MIC (gram-negative bacteria [5]; Escherichia coli, E. coli ATCC25922 ref. strain, read-out: MIC): 32 mg/L (≈ 17.5 µM)
MIC (gram-negative bacteria [5]; Pseudomonas aeruginosas ATCC 10145, read-out: MIC): 16 mg/L (≈ 8.74 µM)
MIC ([6]; Candida albicans SKF 2270, read-out: MIC): 32 mg/L (≈ 17.5 µM)
